Values of other authors as cited in US11731951B1, “Water reactivity with natural products” (King Faisal University, priority 2023, dated 2023).

System: Gram-positive bacteria, including multi-resistant and vancomycin-resistant strains
Details: from "Abyssomicins—A 20-Year Retrospective View"

SMILES	antibiotic activity
CC1CC(C)C(=O)C2=C3OC4C(C)CC3(OC2=O)C(/C=C\C1=O)C4O (centres unmarked) [atrop-abyssomicin C]	high antibiotic activity
C[C@@H]1C[C@H](C)C(=O)/C=C/C2[C@@H](O)[C@H]3OC4=C(C(=O)O[C@@]42C[C@H]3C)C1=O [abyssomicin C]	high antibiotic activity
